Our source for the IC50 values is US9809623B2, “α4β7 peptide monomer and dimer antagonists” (Protagonist Therapeutics, Inc., priority 2014, dated 2017).

Numbered stars: 1 amine (or outer) side, 2 acyl side, 3 side chain; on linkers, the order of the positions; unused ones are H or OH. Bridge positions count the residues as written; N and C are the ends. Square brackets hold non-standard residues; d marks the D form. Peptide text beside a SMILES is read from it. I, II: the chains in the order shown. Phe(3,4-Cl2) = N[C@@H](Cc1ccc(Cl)c(Cl)c1)C(=O)O; Phe(4-COOH) = N[C@@H](Cc1ccc(C(=O)O)cc1)C(=O)O; Phe(2,4-Cl2) = N[C@@H](Cc1ccc(Cl)cc1Cl)C(=O)O; Phe(2-CONH2) = NC(=O)c1ccccc1C[C@H](N)C(=O)O; Diglycolyl = O=C(COCC(=O)[*:2])[*:1]; NMeR = CN[C@@H](CCCNC(=N)N)C(=O)O; Pen = CC(C)(S)[C@H](N)C(=O)O; Dab = NCC[C@H](N)C(=O)O A value given as a limit tells only on which side of the number the result lay.

α4β7, sequence (P13612 34-1032): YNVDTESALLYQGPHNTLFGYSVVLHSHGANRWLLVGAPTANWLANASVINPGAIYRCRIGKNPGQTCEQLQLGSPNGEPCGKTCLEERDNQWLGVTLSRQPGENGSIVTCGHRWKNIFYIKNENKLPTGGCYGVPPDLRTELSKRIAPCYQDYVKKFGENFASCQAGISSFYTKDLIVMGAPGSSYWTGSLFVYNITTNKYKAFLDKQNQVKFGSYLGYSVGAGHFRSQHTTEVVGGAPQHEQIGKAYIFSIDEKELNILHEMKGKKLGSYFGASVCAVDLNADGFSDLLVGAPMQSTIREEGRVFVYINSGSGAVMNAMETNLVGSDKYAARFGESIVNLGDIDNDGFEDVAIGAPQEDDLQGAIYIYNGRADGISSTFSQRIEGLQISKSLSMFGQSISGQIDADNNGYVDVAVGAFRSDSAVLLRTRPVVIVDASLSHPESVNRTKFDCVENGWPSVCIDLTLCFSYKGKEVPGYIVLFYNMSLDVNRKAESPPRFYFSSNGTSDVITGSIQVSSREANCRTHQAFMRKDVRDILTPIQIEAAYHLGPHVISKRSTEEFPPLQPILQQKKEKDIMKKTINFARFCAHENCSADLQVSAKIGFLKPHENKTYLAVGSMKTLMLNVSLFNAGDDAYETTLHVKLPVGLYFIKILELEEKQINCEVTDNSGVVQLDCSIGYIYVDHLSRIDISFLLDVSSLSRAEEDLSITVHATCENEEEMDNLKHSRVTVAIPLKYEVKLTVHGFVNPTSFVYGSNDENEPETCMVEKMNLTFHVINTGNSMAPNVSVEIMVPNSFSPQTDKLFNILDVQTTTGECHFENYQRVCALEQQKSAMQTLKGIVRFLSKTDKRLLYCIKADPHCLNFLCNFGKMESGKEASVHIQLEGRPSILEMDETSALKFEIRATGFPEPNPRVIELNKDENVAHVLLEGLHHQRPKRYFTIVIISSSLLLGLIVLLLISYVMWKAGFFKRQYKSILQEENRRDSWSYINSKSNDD
α4β7, sequence (P26010 20-798): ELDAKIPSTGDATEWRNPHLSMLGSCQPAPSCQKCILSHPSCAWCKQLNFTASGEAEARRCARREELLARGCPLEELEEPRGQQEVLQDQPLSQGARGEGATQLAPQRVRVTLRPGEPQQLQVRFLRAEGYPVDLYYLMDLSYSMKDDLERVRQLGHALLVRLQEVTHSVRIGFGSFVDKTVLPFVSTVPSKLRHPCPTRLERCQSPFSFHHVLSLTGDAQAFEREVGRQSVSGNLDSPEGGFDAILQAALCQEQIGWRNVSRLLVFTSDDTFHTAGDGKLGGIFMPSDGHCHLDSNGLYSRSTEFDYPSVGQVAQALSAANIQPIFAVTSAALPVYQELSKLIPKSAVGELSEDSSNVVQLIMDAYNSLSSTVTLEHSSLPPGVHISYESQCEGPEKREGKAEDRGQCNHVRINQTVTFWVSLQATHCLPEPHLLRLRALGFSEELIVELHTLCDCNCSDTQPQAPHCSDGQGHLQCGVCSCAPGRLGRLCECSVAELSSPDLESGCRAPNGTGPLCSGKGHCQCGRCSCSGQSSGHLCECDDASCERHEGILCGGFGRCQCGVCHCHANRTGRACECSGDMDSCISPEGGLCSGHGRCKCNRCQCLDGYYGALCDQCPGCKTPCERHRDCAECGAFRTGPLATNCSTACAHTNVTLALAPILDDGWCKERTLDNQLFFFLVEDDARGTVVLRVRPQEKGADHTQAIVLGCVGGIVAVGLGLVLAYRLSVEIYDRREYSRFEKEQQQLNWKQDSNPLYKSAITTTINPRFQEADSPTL

The test has as its target α4β7 (Homo sapiens, UniProt P13612+P26010). As to the kind of experiment: α4β7-MAdCAM Cell Adhesion Assay (RPMI 8866 human cells). Details: host or cells: RPMI 8866 human B lymphoblastoid cells. Particulars: Table 3-B, Potency (α4β7); range classes; read-out: α4β7 cell (Hu) IC50. The format is cell-based. The procedure, abridged: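 Washed RPMI 8866 cells (200,000/well) in DMEM with 0.1% BSA, 10 mM HEPES pH 7, 1 mM MnCl2 adhered to rh MAdCAM-1/Fc-coated wells with serially diluted peptides, 30-45 min at 37 °C. After three washes, bound cells quantified by MTT, A570, cell-free background subtracted for dose response.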
As for `CC(=O)N[C@@H]1C(=O)N(C)[C@@H](CCCNC(=N)N)C(=O)N[C@@H](CO)C(=O)N[C@@H](CC(=O)O)C(=O)N[C@@H]([C@@H](C)O)C(=O)N[C@@H](CC(C)C)C(=O)N[C@H](C(=O)N[C@@H](Cc2c[nH]c3ccccc23)C(=O)N[C@@H](CCC(=O)O)C(=O)N[C@@H](CCNC(=O)COCC(=O)NCC[C@H](NC(=O)[C@H](CCC(=O)O)NC(=O)[C@H](Cc2c[nH]c3ccccc23)NC(=O)[C@H]2NC(=O)[C@H](CC(C)C)NC(=O)[C@H]([C@@H](C)O)NC(=O)[C@H](CC(=O)O)NC(=O)[C@H](CO)NC(=O)[C@H](CCCNC(=N)N)N(C)C(=O)[C@@H](NC(C)=O)C(C)(C)SSC2(C)C)C(N)=O)C(N)=O)C(C)(C)SSC1(C)C` [compound 97] (I: Ac-[Pen][NMeR]SDTL[Pen]WE[Dab]-NH2 / II: Ac-[Pen][NMeR]SDTL[Pen]WE[Dab]-NH2; disulfide I:1-I:7, II:1-II:7; linker I:10-II:10 via Diglycolyl), the 50% inhibitory concentration (IC50) is less than 0.01 µM. With `CC(=O)N[C@@H]1C(=O)N(C)[C@@H](CCCNC(=N)N)C(=O)N[C@@H](CO)C(=O)N[C@@H](CC(=O)O)C(=O)N[C@@H]([C@@H](C)O)C(=O)N[C@@H](CC(C)C)C(=O)N[C@H](C(=O)N[C@@H](Cc2ccccc2C(N)=O)C(=O)N[C@H](CCC(=O)O)C(=O)N[C@H](CCCCNC(=O)COCC(=O)NCCCC[C@@H](NC(=O)[C@@H](CCC(=O)O)NC(=O)[C@H](Cc2ccccc2C(N)=O)NC(=O)[C@H]2NC(=O)[C@H](CC(C)C)NC(=O)[C@H]([C@@H](C)O)NC(=O)[C@H](CC(=O)O)NC(=O)[C@H](CO)NC(=O)[C@H](CCCNC(=N)N)N(C)C(=O)[C@@H](NC(C)=O)C(C)(C)SSC2(C)C)C(N)=O)C(N)=O)C(C)(C)SSC1(C)C` [compound 98] (I: Ac-[Pen][NMeR]SDTL[Pen][Phe(2-CONH2)][dE][dK]-NH2 / II: Ac-[Pen][NMeR]SDTL[Pen][Phe(2-CONH2)][dE][dK]-NH2; disulfide I:1-I:7, II:1-II:7; linker I:10-II:10 via Diglycolyl) the figure was 0.05 to 0.1 µM; with `CC(=O)N[C@@H]1C(=O)N(C)[C@@H](CCCNC(=N)N)C(=O)N[C@@H](CO)C(=O)N[C@@H](CC(=O)O)C(=O)N[C@@H]([C@@H](C)O)C(=O)N[C@@H](CC(C)C)C(=O)N[C@H](C(=O)N[C@@H](Cc2ccc(C(=O)O)cc2)C(=O)N[C@H](CCC(=O)O)C(=O)N[C@H](CCCCNC(=O)COCC(=O)NCCCC[C@@H](NC(=O)[C@@H](CCC(=O)O)NC(=O)[C@H](Cc2ccc(C(=O)O)cc2)NC(=O)[C@H]2NC(=O)[C@H](CC(C)C)NC(=O)[C@H]([C@@H](C)O)NC(=O)[C@H](CC(=O)O)NC(=O)[C@H](CO)NC(=O)[C@H](CCCNC(=N)N)N(C)C(=O)[C@@H](NC(C)=O)C(C)(C)SSC2(C)C)C(N)=O)C(N)=O)C(C)(C)SSC1(C)C` [compound 100] (I: Ac-[Pen][NMeR]SDTL[Pen][Phe(4-COOH)][dE][dK]-NH2 / II: Ac-[Pen][NMeR]SDTL[Pen][Phe(4-COOH)][dE][dK]-NH2; disulfide I:1-I:7, II:1-II:7; linker I:10-II:10 via Diglycolyl), less than 0.01 µM. To `CC(=O)N[C@@H]1C(=O)N(C)[C@@H](CCCNC(=N)N)C(=O)N[C@@H](CO)C(=O)N[C@@H](CC(=O)O)C(=O)N[C@@H]([C@@H](C)O)C(=O)N[C@@H](CC(C)C)C(=O)N[C@H](C(=O)N[C@@H](Cc2ccc(Cl)cc2Cl)C(=O)N[C@H](CCC(=O)O)C(=O)N[C@H](CCCCNC(=O)COCC(=O)NCCCC[C@@H](NC(=O)[C@@H](CCC(=O)O)NC(=O)[C@H](Cc2ccc(Cl)cc2Cl)NC(=O)[C@H]2NC(=O)[C@H](CC(C)C)NC(=O)[C@H]([C@@H](C)O)NC(=O)[C@H](CC(=O)O)NC(=O)[C@H](CO)NC(=O)[C@H](CCCNC(=N)N)N(C)C(=O)[C@@H](NC(C)=O)C(C)(C)SSC2(C)C)C(N)=O)C(N)=O)C(C)(C)SSC1(C)C` [compound 101] (I: Ac-[Pen][NMeR]SDTL[Pen][Phe(2,4-Cl2)][dE][dK]-NH2 / II: Ac-[Pen][NMeR]SDTL[Pen][Phe(2,4-Cl2)][dE][dK]-NH2; disulfide I:1-I:7, II:1-II:7; linker I:10-II:10 via Diglycolyl) belongs 0.05 to 0.1 µM; to `CC(=O)N[C@@H]1C(=O)N(C)[C@@H](CCCNC(=N)N)C(=O)N[C@@H](CO)C(=O)N[C@@H](CC(=O)O)C(=O)N[C@@H]([C@@H](C)O)C(=O)N[C@@H](CC(C)C)C(=O)N[C@H](C(=O)N[C@@H](Cc2ccc(Cl)c(Cl)c2)C(=O)N[C@H](CCC(=O)O)C(=O)N[C@H](CCCCNC(=O)COCC(=O)NCCCC[C@@H](NC(=O)[C@@H](CCC(=O)O)NC(=O)[C@H](Cc2ccc(Cl)c(Cl)c2)NC(=O)[C@H]2NC(=O)[C@H](CC(C)C)NC(=O)[C@H]([C@@H](C)O)NC(=O)[C@H](CC(=O)O)NC(=O)[C@H](CO)NC(=O)[C@H](CCCNC(=N)N)N(C)C(=O)[C@@H](NC(C)=O)C(C)(C)SSC2(C)C)C(N)=O)C(N)=O)C(C)(C)SSC1(C)C` [compound 102] (I: Ac-[Pen][NMeR]SDTL[Pen][Phe(3,4-Cl2)][dE][dK]-NH2 / II: Ac-[Pen][NMeR]SDTL[Pen][Phe(3,4-Cl2)][dE][dK]-NH2; disulfide I:1-I:7, II:1-II:7; linker I:10-II:10 via Diglycolyl), 0.1 to 0.5 µM; to `COc1ccc(C[C@H](NC(=O)[C@H]2NC(=O)[C@H](CC(C)C)NC(=O)[C@H]([C@@H](C)O)NC(=O)[C@H](CC(=O)O)NC(=O)[C@H](CO)NC(=O)[C@H](CCCNC(=N)N)N(C)C(=O)[C@@H](NC(C)=O)C(C)(C)SSC2(C)C)C(=O)N[C@H](CCC(=O)O)C(=O)N[C@H](CCCCNC(=O)COCC(=O)NCCCC[C@@H](NC(=O)[C@@H](CCC(=O)O)NC(=O)[C@H](Cc2ccc(OC)cc2)NC(=O)[C@H]2NC(=O)[C@H](CC(C)C)NC(=O)[C@H]([C@@H](C)O)NC(=O)[C@H](CC(=O)O)NC(=O)[C@H](CO)NC(=O)[C@H](CCCNC(=N)N)N(C)C(=O)[C@@H](NC(C)=O)C(C)(C)SSC2(C)C)C(N)=O)C(N)=O)cc1` [compound 103] (I: Ac-[Pen][NMeR]SDTL[Pen]Y(Me)[dE][dK]-NH2 / II: Ac-[Pen][NMeR]SDTL[Pen]Y(Me)[dE][dK]-NH2; disulfide I:1-I:7, II:1-II:7; linker I:10-II:10 via Diglycolyl), 0.025 to 0.05 µM.

`CC(=O)N[C@@H]1C(=O)N(C)[C@@H](CCCNC(=N)N)C(=O)N[C@@H](CO)C(=O)N[C@@H](CC(=O)O)C(=O)N[C@@H]([C@@H](C)O)C(=O)N[C@@H](CC(C)C)C(=O)N[C@H](C(=O)N[C@@H](Cc2c[nH]c3ccccc23)C(=O)N[C@@H](Cc2ccc(C(=O)O)cc2)C(=O)N[C@H](CCCCNC(=O)COCC(=O)NCCCC[C@@H](NC(=O)[C@H](Cc2ccc(C(=O)O)cc2)NC(=O)[C@H](Cc2c[nH]c3ccccc23)NC(=O)[C@H]2NC(=O)[C@H](CC(C)C)NC(=O)[C@H]([C@@H](C)O)NC(=O)[C@H](CC(=O)O)NC(=O)[C@H](CO)NC(=O)[C@H](CCCNC(=N)N)N(C)C(=O)[C@@H](NC(C)=O)C(C)(C)SSC2(C)C)C(N)=O)C(N)=O)C(C)(C)SSC1(C)C` [compound 105] (I: Ac-[Pen][NMeR]SDTL[Pen]W[Phe(4-COOH)][dK]-NH2 / II: Ac-[Pen][NMeR]SDTL[Pen]W[Phe(4-COOH)][dK]-NH2; disulfide I:1-I:7, II:1-II:7; linker I:10-II:10 via Diglycolyl): the IC50 fell in the range of 0.05 to 0.1 µM.
